# Experiments:
# [1] = Maximum solubility in PBS or saline; type: physicochemical; conditions: PBS; read-out: maximum solubility in PBS
# [2] = Concentration and stability of R406 in cosolvent solution formulation; type: physicochemical
# Description: R406 stability in cosolvent solution: Precipitation of R406 in the cosolvent solution causes a drop in concentration after 48 hours of storage at room temperature (Table S3), but there is no loss of purity indicating R406 is chemically stable in the co-solvent solution for 48 hours at room temperature (Figure S4).
# [3] = test system: RB355 cells; assay: Activated caspase 3 immunostaining of RB355 cells; type: cell-based
# [4] = Concentration and stability of R406 in castor oil and castor oil emulsion; type: physicochemical
# Description: For oral delivery of R788, the target dose of 25 mg/kg R788 was administered by oral gavage as a 4 mM solution in 0.01 N citrate buffer, pH 6 ([9]). For subconjunctival administration, R788 was prepared at a concentration of 4 mM in 2% PEG-800 and filtered through a 0.22 μm filter prior to use (see Table S1). R788 was also administered subconjunctivally as a suspension at a concentration of 25 mM in 10% 2-hydroxylpropyl-β-cyclodextrin (HPβCD, Sigma-Aldrich). For subconjunctival administration, R406 phenylsulfonate salt was administered at a concentration of 800–900 μM as a cosolvent solution in a formulation of 5% Cremaphor-eL, 0.5% ethanol, 0.2% Tween 80 and 94.3% PBS, filtered through a 0.22 μm filter prior to use (see Table S2). R406 phenylsulfonate salt was also administered subconjunctivally at a dose of 31.4 mM solution in DMSO. R406 free base was administered subconjunctivally at a concentration of 6.5 mM as a 25% castor oil (Sigma-Aldrich) emulsion. This emulsion was prepared by mixing castor oil: ethanol (1:1) solution of R406 (approx. 35 mM), in vacuo evaporation of the ethanol, and centrifugation to remove any excess R406, then emulsifying the R406 oil phase in an aqueous phase comprised of Cremaphor-eL, Tween 80 and PBS (final composition of the emulsion: 25% castor oil, 5% Cremaphor-eL, 0.2% Tween-80, 69.8% PBS) by probe sonication. For intravitreal injection, R788 solution was prepared by filtering a 0.12 mM (120 μM) solution of R788 in saline through a 0.22 μm filter. […] For topical delivery, 25–30 mM suspensions were prepared in 5% HPβCD. R406 or R788 concentration in all formulations was determined by UPLC prior to study (in cases where formulation was filtered before administration, concentration was determined post-filtering) Table I.
# An emulsion of 30% castor oil, 5% Cremaphor, 4% T80, 61% PBS was prepared and samples were stored at 4 °C and room temperature (25 °C). Samples were diluted and OD600 for each dilution was measured in triplicate on the day of emulsion preparation (storage time = 0 days) and after 6 days of storage. OD600 was measured using a black Costar clear bottom plate and a Spectramax plate reader.
# For storage stability in emulsion, n =4.
# [5] = Storage stability of R406 in murine vitreous samples; type: physicochemical, mouse
# Description: Stability: The extracted solution stability of R406 from murine plasma or vitreous was assessed at low (41.2nM), medium (370.4 nM), and high (3333.3 nM) concentrations in triplicate at room temperature. Blank murine plasma was spiked with the indicated concentrations of R406 and extracted solutions were stored at room temperature for day 0, and day 2. The short-term stability of R406 in murine plasma or vitreous at -20 °C was assessed at three concentrations in triplicate. […] internal standard/acetonitrile as described previously: for murine plasma samples, 50 µL of sample was quenched by addition of 100 µL of 5 mg/L OSI-906 (internal standard) in 100% acetonitrile, followed by plate sealing, shaking and centrifuging, transfer of 100 µL of supernatant injection of 10 µL of supernatant onto the LC–MS/MS system; for murine vitreous samples, 5 µL of sample quenched by addition of 45 µL of 5 mg/L OSI-906 (internal standard) in 100% acetonitrile, followed by plate sealing, shaking and centrifuging, transfer of 40 µL of supernatant injection of 10 µL of supernatant onto the LC–MS/MS system. Long term stability of R406 in murine plasma or vitreous at −80 °C was assessed. Unextracted spiked murine plasma or vitreous at low, medium, and high levels was frozen at −80 °C for 0, 7, and 14 days. Samples were thawed immediately extracted with acetonitrile/OSI-906, and quantitated. All samples were analyzed in triplicates.
# [6] = Storage Time = 48 hr, room temperature
# [7] = Storage Time = 24 hr, room temperature
# [8] = Storage Time = 72 hr, room temperature
compound,measurement,setting,value
COc1cc(Nc2ncc(F)c(Nc3ccc4c(n3)NC(=O)C(C)(C)O4)n2)cc(OC)c1OC.O=S(=O)(O)c1ccccc1 [R406 phenylsulfonate salt],solubility,[1],0.4 µM
COc1cc(Nc2ncc(F)c(Nc3ccc4c(n3)NC(=O)C(C)(C)O4)n2)cc(OC)c1OC [R406],Average Concentration in cosolvent formulation,"[2]; Initial Concentration, room temperature",743.6 µM
same,Average Concentration in cosolvent formulation,[2]; [6],252.5 µM
same,Percentage of Initial Concentration in cosolvent formulation,[2]; [6],34%
same,maximum concentration of R406 in solution formulation,[2]; cosolvent solution formulation with FDA approved ophthalmic adjuvants,approximately 900 μM
same,time chemically stable in cosolvent solution formulation (no loss of purity),[2]; room temperature,48 h
same,caspase 3+ activation compared to untreated or DMSO treated cells,"[3]; 1 μM R406, any exposure time up to 48 h",did not show any increase in caspase 3+ activation
same,proportion of activated caspase 3+ cells,"[3]; 2.5 and 5 μM R406, 0-72 h exposure",increased with increasing exposure duration
same,minimal exposure required to kill retinoblastoma cells in culture,[3]; for at least 12 h,> 1 µM
same,Average Concentration in castor oil emulsion,"[4]; Initial Concentration, room temperature, n=4",12.39 ± 1.21 mM
same,time emulsion was stable,"[4]; R406 castor oil emulsion, room temperature",48 h
same,Average Concentration in castor oil emulsion,[4]; [7],11.03 ± 2.09 mM
same,Percentage of Initial Concentration in castor oil emulsion,[4]; [7],89.0%
same,Average Concentration in castor oil emulsion,[4]; [6],9.78 ± 3.13 mM
same,Percentage of Initial Concentration in castor oil emulsion,[4]; [6],78.9%
same,Average Concentration in castor oil emulsion,[4]; [8],12.45 ± 1.43 mM
same,Percentage of Initial Concentration in castor oil emulsion,[4]; [8],100.5%
same,concentration of R406 achieved in emulsion,[4]; castor oil emulsion,6500 µM
same,time stable in castor oil emulsion,[4]; room temperature,at least 72 hours
same,time extracted samples were stable,"[5]; extracted from murine vitreous, room temperature",at least 48 hours
same,Accuracy%,"[5]; extracted vitreous samples in autosampler for 2 days, injected at Day 3, High Control 3333.3 nM",91.6%
same,Accuracy%,"[5]; extracted vitreous samples in autosampler for 2 days, injected at Day 3, Low Control 41.2 nM",96.0%
same,Accuracy%,"[5]; extracted vitreous samples in autosampler for 2 days, injected at Day 3, Middle Control 370.4 nM",88.8%
same,Accuracy%,"[5]; murine vitreous at -20°C, thawed on Day 2, injected at Day 3, High Control 3333.3 nM",91.1%
same,Accuracy%,"[5]; murine vitreous at -20°C, thawed on Day 2, injected at Day 3, Low Control 41.2 nM",109.4%
same,Accuracy%,"[5]; murine vitreous at -20°C, thawed on Day 2, injected at Day 3, Middle Control 370.4 nM",93.2%
same,Accuracy%,"[5]; murine vitreous at -20°C, thawed on Day 3, injected at Day 3, High Control 3333.3 nM",90.3%
same,Accuracy%,"[5]; murine vitreous at -20°C, thawed on Day 3, injected at Day 3, Low Control 41.2 nM",96.6%
same,Accuracy%,"[5]; murine vitreous at -20°C, thawed on Day 3, injected at Day 3, Middle Control 370.4 nM",94.4%
same,Accuracy%,"[5]; murine vitreous at -80°C, injected at Day 8, High Control 3333.3 nM",96.4%
same,Accuracy%,"[5]; murine vitreous at -80°C, injected at Day 8, Low Control 41.2 nM",78.7%
same,Accuracy%,"[5]; murine vitreous at -80°C, injected at Day 8, Middle Control 370.4 nM",87.5%
same,Accuracy%,"[5]; murine vitreous at -80°C, injected at Day 15, High Control 3333.3 nM",105.2%
same,Accuracy%,"[5]; murine vitreous at -80°C, injected at Day 15, Low Control 41.2 nM",105.5%
same,Accuracy%,"[5]; murine vitreous at -80°C, injected at Day 15, Middle Control 370.4 nM",99.4%
same,time spiked samples were stable,[5]; murine vitreous stored at -20°C,at least 72 hours
same,time spiked samples were stable,[5]; murine vitreous stored at -80°C,≥ 14 days

# Source: PMC4213378, “Pharmacokinetics and Efficacy of the Spleen Tyrosine Kinase Inhibitor R406 after Ocular Delivery for Retinoblastoma” (Pharmaceutical Research, 2014)
